Test results: patent publication EP4759807A1, “PROTEOLYSIS TARGETING CHIMERA COMPOUND FOR DEGRADING IRAK4 AND USE THEREOF” (Shenzhen Zhongge Biological Technology Co., Ltd., priority 2023, dated 2025)
pIC50: −log10 of the molar value.

How the values were obtained:
CYP2C19 = target: T1, CYP2C19 (Homo sapiens, UniProt P33261); test: Inhibitory effect on human liver microsome CYP450 enzyme; type: in vitro ADME; settings: human liver microsomes, substrate Mephenytoin
T1 construct: (using 0.2 mg/mL liver microsomes for CYP2C19); tissue BioIVT IHG; host or cells: human liver microsomes
T1 sequence (P33261 whole entry): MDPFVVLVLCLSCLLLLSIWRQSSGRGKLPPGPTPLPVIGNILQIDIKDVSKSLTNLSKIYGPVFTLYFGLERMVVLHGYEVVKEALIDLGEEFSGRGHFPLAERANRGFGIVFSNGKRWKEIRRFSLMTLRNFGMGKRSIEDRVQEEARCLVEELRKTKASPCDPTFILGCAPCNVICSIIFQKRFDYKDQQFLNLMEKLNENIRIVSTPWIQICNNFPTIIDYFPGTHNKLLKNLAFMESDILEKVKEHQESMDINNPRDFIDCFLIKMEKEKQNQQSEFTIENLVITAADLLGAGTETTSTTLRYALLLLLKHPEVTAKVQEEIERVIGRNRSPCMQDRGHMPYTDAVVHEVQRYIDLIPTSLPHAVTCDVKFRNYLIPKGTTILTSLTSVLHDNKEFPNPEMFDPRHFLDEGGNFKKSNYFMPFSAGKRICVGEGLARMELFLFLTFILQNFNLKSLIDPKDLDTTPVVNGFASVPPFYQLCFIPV
Description: (§1) In this experiment, the compound, liver microsomes and different CYP isoform enzyme substrates were incubated in a 37°C water bath, the amount of substrate metabolites generated was measured, and the inhibitory effect of the compound of the present disclosure on CYP enzyme was evaluated based on the IC50 value.
(§2) i. The compound was diluted with DMSO (Aladdin, catalog number: D103273-500ml) to concentrations of 0, 0.02, 0.06, 0.2, 0.6, 2 and 6 mM. The positive reference inhibitors for each CYP isoform and their concentrations are shown in Table 4 Table 4 Positive reference inhibitors for CYP isoform enzymes and their concentrations
(§3) ii. Phosphate buffer (sigma: V900050-500G) was used to formulate the substrate solution for each CYP isoform enzyme. Table 5 The substrate and the concentration thereof for CYP isoform enzyme
(§4) iii. Sample incubation. 1 µL of each concentration of the compound and positive reference inhibitor for CYP isoform enzyme were taken and placed into a 96-deep well plate (A-gen: P-1.0-RD-96-S), and 169 µL of 0.05 mg/mL liver microsomes (BioIVT, IHG) phosphate buffer solution (using 0.2 mg/mL liver microsomes for CYP2C19) was added. After uniform mixing, the plate was placed in a 37°C water bath (Shanghai Jinghong Experimental Equipment Co., Ltd., DK-500) with shaking for pre-incubation for 15 min. 10 µL of substrate (adding 1 µL of substrate for CYP3A4-Testosterone) and 20 µL of 10 mM NADPH phosphate buffer solution (MCE, HYF003/CS-4998) were added. After uniform mixing, the plate was incubated in a water bath with shaking for the following time: CYP1A2: 20 min, CYP2C9: 10 min, CYP2C19: 10 min, CYP2D6: 10 min, CYP3A4-Testosterone: 10 min, CYP3A4-Midazolam: 5 min. 400 µL of glacial acetonitrile/methanol (v/v, 1:1) containing an internal standard (500 nM tolbutamide, 5 nM terfenadine) was added to terminate the reaction. After centrifugation at 4000 rpm at 4°C for 40 min, the supernatant was taken and diluted with pure water according to the response of the metabolite of the substrate, and then UPLC-MS/MS (Sciex, Q-Trap 4500) was used for detection to obtain the peak area. The C18 chromatographic column was Kinetex 2.6u C18 100A (50 mm*3 mm).
(§5) The inhibitory effect of the compound on each P450 enzyme in human liver microsomes was calculated as the percentage of reduced metabolite formation compared with the non-inhibitory control (i.e. blank DMSO). The IC50 value of the compound for each P450 enzyme in human liver microsomes was calculated with the logarithm of the remaining activity and the inhibitor concentration using Graphpad Prism software. The calculation equation was as follows: Peak area ratio = compound peak area / internal standard peak area [formula] [formula]
(§6) In Graphpad Prism software, the IC50 value was calculated using the standard four-parameter curve fitting algorithm.

CYP2C9 = target: T2, CYP2C9 (Homo sapiens, UniProt P11712); test: as above; type: in vitro ADME; settings: human liver microsomes, substrate Diclofenac Sodium
T2 construct: 0.05 mg/mL liver microsomes (BioIVT, IHG) phosphate buffer solution; tissue BioIVT IHG; host or cells: human liver microsomes
T2 sequence (P11712 whole entry): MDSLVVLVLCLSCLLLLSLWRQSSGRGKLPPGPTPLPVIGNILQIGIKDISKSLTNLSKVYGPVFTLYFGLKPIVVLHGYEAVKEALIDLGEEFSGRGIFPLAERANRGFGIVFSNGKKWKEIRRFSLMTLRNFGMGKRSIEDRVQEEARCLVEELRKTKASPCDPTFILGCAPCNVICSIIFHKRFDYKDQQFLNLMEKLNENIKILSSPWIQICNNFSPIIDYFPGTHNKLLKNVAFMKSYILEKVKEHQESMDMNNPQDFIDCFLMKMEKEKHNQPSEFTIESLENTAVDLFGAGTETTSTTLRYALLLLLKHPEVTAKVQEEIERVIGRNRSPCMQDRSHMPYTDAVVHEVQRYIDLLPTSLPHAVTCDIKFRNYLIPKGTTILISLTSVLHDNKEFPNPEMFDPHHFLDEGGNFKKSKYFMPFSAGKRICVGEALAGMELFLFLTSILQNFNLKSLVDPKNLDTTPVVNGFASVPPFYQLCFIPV
Description: as §1, §2, §3, §4, §5, §6

hERG ion channel = target: T3, hERG ion channel (Homo sapiens, UniProt Q12809); test: Inhibitory effect on hERG ion channels (manual patch clamp); type: cell-based; settings: HEK293 cells stably expressing hERG channels, read-out: hERG (IC50, manupatch)
T3 construct: host or cells: HEK293
T3 sequence (Q12809 whole entry): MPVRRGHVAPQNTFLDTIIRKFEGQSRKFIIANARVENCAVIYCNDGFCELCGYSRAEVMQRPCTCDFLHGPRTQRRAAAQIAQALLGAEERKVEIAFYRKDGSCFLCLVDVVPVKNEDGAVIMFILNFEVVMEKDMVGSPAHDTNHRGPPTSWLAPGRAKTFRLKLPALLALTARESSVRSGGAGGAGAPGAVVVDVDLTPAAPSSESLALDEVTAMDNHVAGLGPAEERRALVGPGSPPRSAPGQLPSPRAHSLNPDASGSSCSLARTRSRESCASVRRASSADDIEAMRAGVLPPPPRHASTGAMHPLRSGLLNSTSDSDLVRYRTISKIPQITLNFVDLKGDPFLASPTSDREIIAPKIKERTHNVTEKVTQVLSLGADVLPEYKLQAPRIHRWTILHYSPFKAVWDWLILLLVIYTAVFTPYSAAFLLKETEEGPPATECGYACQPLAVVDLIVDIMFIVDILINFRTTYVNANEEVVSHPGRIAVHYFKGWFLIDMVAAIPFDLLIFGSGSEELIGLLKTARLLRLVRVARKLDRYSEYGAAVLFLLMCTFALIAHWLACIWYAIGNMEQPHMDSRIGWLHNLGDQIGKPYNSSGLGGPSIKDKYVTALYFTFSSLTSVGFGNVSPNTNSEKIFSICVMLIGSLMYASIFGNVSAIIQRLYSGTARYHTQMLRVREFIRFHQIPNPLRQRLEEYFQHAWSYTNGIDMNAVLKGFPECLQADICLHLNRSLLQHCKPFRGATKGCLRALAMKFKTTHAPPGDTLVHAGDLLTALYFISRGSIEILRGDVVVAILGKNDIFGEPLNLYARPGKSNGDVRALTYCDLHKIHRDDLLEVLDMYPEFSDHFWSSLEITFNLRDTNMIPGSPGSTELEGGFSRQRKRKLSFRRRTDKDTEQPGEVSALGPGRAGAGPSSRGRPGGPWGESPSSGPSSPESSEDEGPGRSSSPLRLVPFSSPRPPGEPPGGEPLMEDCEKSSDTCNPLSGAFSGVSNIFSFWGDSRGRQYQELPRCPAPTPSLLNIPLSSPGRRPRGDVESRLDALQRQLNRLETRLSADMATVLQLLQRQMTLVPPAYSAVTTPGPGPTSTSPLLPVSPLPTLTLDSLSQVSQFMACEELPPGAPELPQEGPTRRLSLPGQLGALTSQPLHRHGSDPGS
Description: In this experiment, the inhibitory effect of the compound on the hERG ion channel was detected by a manual patch clamp electrophysiological method, and the cardiac safety was evaluated based on the single concentration inhibition rate or IC50 of the compound.
The cells used in this experiment were HEK293 cell lines transfected with hERG cDNA and stably expressing hERG channels (#60187, provided by BPS, P3-P23 generations were used for experimental research). The cells was cultured in a medium containing the following components: MEM medium, 10% (v/v) inactivated fetal bovine serum, 1 mM sodium pyruvate, 500 µg geneticin, 0.1 mM non-essential amino acids, 100 U penicillin-streptomycin. HEK293 hERG cells were grown in a culture flask containing the above culture solution and cultured in an incubator at 37°C and 5% CO2. […]
A manual patch clamp system (HEKA EPC-10 signal amplifier and digital conversion system, purchased from HEKA Electronics, Germany) was used to record whole-cell currents in electrophysiological experiments. […] After the hERG current recorded in the above steps reached stabilization under the continuous perfusion of extracellular solution in the recording chamber, different concentrations of the compound to be tested could be perfused until the inhibitory effect of the drug on the hERG current reached a stable state. […]

Cn1c(=O)n(C2CCC(=O)NC2=O)c2cccc(N3CCC(N4CCN(C[C@H]5CC[C@H](n6cc(-n7cc(-c8cnn9ccc(N%10CCC[C@H](O)C%10)nc89)nn7)c(C(F)F)n6)CC5)CC4)CC3)c21 (stereo partly drawn) [Example 146]
IC50 (CYP2C19): 18.4 µM
IC50 (CYP2C9): > 30 µM
pIC50 (hERG ion channel): 5.15
